Source: patent publication US7160897B2, “Therapeutic compounds” (SmithKline Beecham Corporation, priority 2000, dated 2007)

Each molecule was assayed on HSV-1 (assay: HSV-1 replication in Vero 76 cells, viral DNA hybridization capture assay). Settings: Human alphaherpesvirus 1; HSV-1 infected Vero 76 cells, MOI=0.001, 40–48 hours incubation, HSV DNA detected by hybridization/chemiluminescence.
Type: cell-based, herpes simplex virus 1
Protocol: Vero 76 cells were maintained in MEM with Earle's salts, L-glutamine, 8% FBS (Hyclone, A-1111-L) and 100 units/mL Penicillin-100 μg/mL Streptomycin. For assay conditions, FBS was reduced to 2%. Cells are seeded into 96-well tissue culture plates at a density of 5×10^4 cells/well after being incubated for 45 min at 37° C. in the presence of HSV-1 or HSV-2 (MOI=0.001). Test compounds are added to the wells and the plates are incubated at 37° C. for 40–48 hours. Cell lysates are prepared as follows: media was removed and replaced with 150 μL/well 0.2 N NaOH with 1% Igepal CA 630 or NP-40. Plates were incubated up to 14 days at room temperature in a humidified chamber to prevent evaporation.
For the detection probe, a gel-purified, digoxigenin-labeled, 710-bp PCR fragment of the HSV UL-15 sequence was utilized. PCR conditions included 0.5 μM primers, 180 μM dTTP, 20 μM dUTP-digoxigenin (Boehringer Mannheim 1558706), 200 μM each of dATP, dCTP, and dGTP, 1×PCR Buffer II (Perkin Elmer), 2.5 mM MgCl2, 0.025 units/μL of AmpliTaq Gold polymerase (Perkin Elmer), and 5 ng of gel-purified HSV DNA per 100 μL. Extension conditions were 10 min at 95° C., followed by 30 cycles of 95° C. for 1 min, 55° C. for 30 sec, and 72° C. for 2 min. The amplification was completed with a 10-min incubation at 72° C. Primers were selected to amplify a 728 bp probe spanning a section of the HSV1 UL15 open reading frame (nucleotides 249–977). Single-stranded transcripts were purified with Promega M13 Wizard kits. The final product was mixed 1:1 with a mixture of 6 M GuSCN, 100 mM EDTA and 200 μg/mL herring sperm DNA and stored at 4° C.
The capture DNA plasmid (HSV UL13 region in pUC) was linearized by cutting with Xba I, denatured for 15 min at 95° C. and diluted immediately into Reacti-Bind DNA Coating Solution (Pierce, 17250, diluted 1:1 with TE buffer, pH 8) at 1 ng/μL 75 μL/well were added to Corning (#3922 or 9690) white 96-well plates and incubated at room temperature for at least 4 hrs before washing twice with 300 μL/well 0.2×SSC/0.05% Tween-20 (SSC/T buffer). The plates were then incubated overnight at room temperature with 150 μL/well 0.2 N NaOH, 1% IGEPAL and 10 μg/mL herring sperm DNA.
Twenty-seven (27) μL of cell lysate was combined with 45 μL of hybridization solution (final concentration: 3M GuSCN, 50 mM EDTA, 100 μg/ml salmon sperm DNA, 5× Denhardt's solution, 0.25×APE, and 5 ng of the digoxigenin-labeled detection probe). APE is 1.5 M NH4-acetate, 0.15 M ammonium phosphate monobasic, and 5 mM EDTA adjusted to pH 6.0. Mineral oil (50 μL) was added to prevent evaporation. The hybridization plates were incubated at 95° C. for 10 minutes to denature the DNA, then incubated at 42° C. overnight The wells were washed 6× with 300 μL/well SSC/T buffer then incubated with 75 μL/well anti-digoxigenin-HRP-conjugated antibody (Boehringer Mannheim 1207733, 1:5000 in TE) for 30 min at room temperature. The wells were washed 6× with 300 μL/well with PBS/0.05% Tween-20 before 75 μL/well SuperSignal LBA substrate (Pierce) was added. The plates were incubated at room temperature for 30 minutes and chemiluminescence was measured in a Wallac Victor reader.
The following results were obtained for HSV-1.

Row | IC50 [nM] | SMILES
1 | 1000 | COc1ccc(-c2nn3c(NC4CCCC4)cccc3c2-c2ccnc(Nc3cccc([N+](=O)[O-])c3)n2)cc1 [Example 10, N-Cyclopentyl-2-(4-methoxyphenyl)-3-[2-(3-nitroanilino)-4-pyrimidinyl]pyrazolo[1,5-α]pyridin-7-amine]
2 | 1250 | COc1ccc(Nc2nccc(-c3c(-c4ccc(F)cc4)nn4c(NC5CCCC5)cccc34)n2)cc1 [Example 3, N-Cyclopentyl-2-(4-fluorophenyl)-3-[2-(4-methoxyanilino)-4-pyrimidinyl]pyrazolo[1,5-α]pyridin-7-amine]
3 | 2800 | COc1ccc(-c2nn3c(NC4CCCC4)cccc3c2-c2ccnc(Nc3cccc(C(=O)c4ccccc4)c3)n2)cc1 [Example 5, [3-({4-[7-(Cyclopentylamino)-2-(4-methoxyphenyl)pyrazolo[1,5-α]pyridin-3-yl]-2-pyrimidinyl}amino)phenyl](phenyl)methanone]
4 | 700 | COc1ccc(-c2nn3c(NC4CCCC4)cccc3c2-c2ccnc(Nc3cccc(N)c3)n2)cc1 [Example 12, N^1-{4-[7-(Cyclopentylamino)-2-(4-methoxyphenyl)pyrazolo[1,5-α]pyridin-3-yl]-2-pyrimidinyl}-1,3-benzenediamine]
5 | 500 | Fc1ccc(-c2nn3c(NC4CCCC4)cccc3c2-c2ccnc(Nc3ccccc3)n2)cc1 [Example 1, 3-(2-Anilino-4-pyrimidinyl)-N-cyclopentyl-2-(4-fluorophenyl)pyrazolo[1,5-α]pyridin-7-amine]
6 | 14000 | Fc1ccc(-c2nn3ccc(Cl)cc3c2-c2ccnc(Nc3ccccc3)n2)cc1 [Example 6, 4-[5-Chloro-2-(4-fluorophenyl)pyrazolo[1,5-α]pyridin-3-yl]-N-phenyl-2-pyrimidinamine]
7 | 3300 | Fc1ccc(-c2nn3ccc(NC4CCCC4)cc3c2-c2ccnc(Nc3ccccc3)n2)cc1 [Example 7, N-[3-(2-Anilino-4-pyrimidinyl)-2-(4-fluorophenyl)pyrazolo[1,5-α]pyridin-5-yl]-N-cyclopentylamine]
8 | 700 | COc1ccc(-c2nn3c(NC4CCCC4)cccc3c2-c2ccnc(Nc3cccc(CO)c3)n2)cc1 [Example 11, [3-({4-[7-(Cyclopentylamino)-2-(4-methoxyphenyl)pyrazolo[1,5-α]pyridin-3-yl]-2-pyrimidinyl}amino)phenyl]methanol]
9 | 600 | Fc1ccc(Nc2nccc(-c3c(-c4ccc(F)cc4)nn4c(NC5CCCC5)cccc34)n2)cc1 [Example 4, N-Cyclopentyl-3-[2-(4-fluoroanilino)-4-pyrimidinyl]-2-(4-fluorophenyl)pyrazolo[1,5-α]pyridin-7-amine]
10 | 400 | COc1cc(Nc2nccc(-c3c(-c4ccc(F)cc4)nn4c(NC5CCCC5)cccc34)n2)cc(OC)c1OC [Example 2, N-Cyclopentyl-2-(4-fluorophenyl)-3-[2-(3,4,5-trimethoxyanilino)-4-pyrimidinyl]pyrazolo[1,5-α]pyridin-7-amine]
11 | 800 | COc1ccc(-c2nn3c(NC4CCCC4)cccc3c2-c2ccnc(Nc3cccc(N=[N+]=[N-])c3)n2)cc1 [Example 13, 3-[2-(3-Azidoanilino)-4-pyrimidinyl]-N-cyclopentyl-2-(4-methoxyphenyl)pyrazolo[1,5-α]pyridin-7-amine]
12 | 160 | Fc1ccc(-c2nn3c(NC4CCCC4)cc(Cl)cc3c2-c2ccnc(Nc3ccccc3)n2)cc1 [Example 8, 3-(2-Anilino-4-pyrimidinyl)-5-chloro-N-cyclopentyl-2-(4-fluorophenyl)pyrazolo[1,5-α]pyridin-7-amine]
13 | 2000 | CCSc1cc(Cl)cc2c(-c3ccnc(Nc4ccccc4)n3)c(-c3ccc(F)cc3)nn12 [Example 9, N-{4-[5-Chloro-7-(ethylsulfanyl)-2-(4-fluorophenyl)pyrazolo[1,5-α]pyridin-3-yl]-2-pyrimidinyl}-N-phenylamine]
